Where two headings read alike, the source gives them in different places.
What was measured:
[1] = tested on: glial fibrillary acidic protein (GFAP); details: day 16 post-blast
histidine = details: for Brain Histidine Concentration: mean ± SD
carnosine = details: for Brain Carnosine Concentration: mean ± SD
tau protein = details: day 16 post-blast; for Tau protein expression, CTL compared with BA: p<0.001
[2] = tested on: rats exposed to a low-pressure blast wave; details: 30 days supplementation
[3] = tested on: brain-derived neurotrophic factor (BDNF); details: day 16 post-blast
[4] = individuals taking β-alanine as a free amino acid; cited from earlier work
[5] = tested on: rats exposed to a low-pressure blast wave; details: 1 h following blast
Description: Neurological assessment using the neurological severity score (NSS) was performed one hour following the blast and daily thereafter. […] The NSS was performed 1-h following the initial blast wave exposure. NSS assesses somatomotor and somatosensory function by evaluating the animals' activities in motor, sensory, reflexes, beam walking, and beam balancing tasks. Specifically, the following were assessed: ability to exit from a circle (3-point scale), gait on a wide surface (3-point scale), gait on a narrow surface (4-point scale), effort to remain on a narrow surface (2-point scale), reflexes (5-point scale), seeking behavior (2-point scale), beam walking (3-point scale), and beam balance (3- point scale). An observer, who was blind to the different treatment groups, tested the animals.

neuropeptide Y (NPY) = details: day 16 post-blast

Compound: NCCC(=O)O [BA, beta-alanine]
- GFAP expression, PL compared with BA ([1]; CA1 subregion, p=0.001): significantly greater
- GFAP expression, CTL compared with BA ([1]; CA1 subregion, p=0.126): No differences
- GFAP expression, PL compared with BA ([1]; CA3 subregion, p=0.021): significantly greater
- GFAP expression, BA compared with CTL ([1]; CA3 subregion, p=0.876): no differences
- GFAP expression, comparison between BA, PL and CTL ([1]; DG subregion, ANOVA p=0.387): no difference
- Brain Histidine Concentration (histidine; Amygdala): 2619 ± 1467 mM
- Brain Histidine Concentration (histidine; Cortex): 5669 ± 4471 mM
- Brain Histidine Concentration (histidine; Hippocampus): 5632 ± 4995 mM
- Brain Histidine Concentration (histidine; Hypothalamus): 1862 ± 1794 mM
- Brain Histidine Concentration (histidine; Thalamus): 26025 ± 21754 mM
- histidine content higher than PL (histidine; across the five regions of the brain): 86%
- histidine content, BA compared to PL (histidine; cerebral cortex, p=0.070): Trends towards a higher histidine content
- histidine content, BA compared to PL (histidine; hippocampus, p=0.053): Trends towards a higher histidine content
- histidine content, BA compared to PL (histidine; thalamus, p=0.108): Trends towards a higher histidine content
- Brain Carnosine Concentration (carnosine; Amygdala): 23.2 ± 18.4 mM
- Brain Carnosine Concentration (carnosine; Cortex): 364 ± 178 mM
- Brain Carnosine Concentration (carnosine; Hippocampus): 22.4 ± 11.3 mM
- Brain Carnosine Concentration (carnosine; Hypothalamus): 22.7 ± 26.2 mM
- Brain Carnosine Concentration (carnosine; Thalamus): 50.9 ± 33.9 mM
- carnosine content, BA compared to PL (carnosine; amygdala, p=0.061): Trends towards a difference
- carnosine content higher than in animals that consumed the vehicle (carnosine; average across the five brain regions): 79%
- carnosine content, BA compared to PL (carnosine; cerebral cortex, p=0.048): significantly higher
- carnosine content, BA compared to PL (carnosine; hippocampus, p=0.058): Trends towards a difference
- Tau protein expression, CTL compared with BA (tau protein; CA1 subregion): significantly lower
- Tau protein expression, BA compared with PL (tau protein; CA1 subregion, p=0.700): No significant differences
- Tau protein expression, CTL compared with BA (tau protein; CA3 subregion): significantly lower
- Tau protein expression, BA compared with PL (tau protein; CA3 subregion, p=1.000): no differences
- Tau protein expression, CTL compared with BA (tau protein; DG subregion): significantly lower
- Tau protein expression, BA compared with PL (tau protein; DG subregion, p=0.557): no differences observed
- prevalence of animals demonstrating the comorbid pattern of mTBI+PTSD ([2]; 2/49): 4%
- prevalence of PTSD ([2]; 5/49): 10.2%
- prevalence of animals demonstrating mTBI ([2]; 13/49): 26.5%
- BDNF expression, BA compared with PL ([3]; CA1 subregion, p=0.009): significantly higher
- BDNF expression, CTL compared with BA ([3]; CA1 subregion, p=0.025): significantly higher
- BDNF expression, CTL compared with BA ([3]; CA3 subregion, p=0.005): significantly greater
- BDNF expression, BA compared with PL ([3]; CA3 subregion, p=0.110): No difference
- BDNF expression, CTL compared with BA ([3]; DG subregion, p=0.005): significantly greater
- BDNF expression, BA compared with PL ([3]; DG subregion, p=0.136): no differences
- duration of flushing/tingling (paraesthesia) of the skin [4]: less than 60 minutes
- NSS: reflex responses, motor coordination, motor strength, sensory function, BA vs PL [5]: No significant differences
- NPY expression, CTL compared with BA (neuropeptide Y (NPY); CA1 subregion, p=0.011): significantly higher
- NPY expression, BA compared with PL (neuropeptide Y (NPY); CA1 subregion, p=0.196): No significant differences
- NPY expression, CTL compared with BA (neuropeptide Y (NPY); CA3 subregion, p=0.032): significantly greater
- NPY expression, BA compared with PL (neuropeptide Y (NPY); CA3 subregion, p=0.480): no differences
- NPY expression, CTL compared with BA (neuropeptide Y (NPY); DG subregion, p=0.011): significantly greater
- NPY expression, BA compared with PL (neuropeptide Y (NPY); DG subregion, p=0.074): trended (p=0.074) towards a higher response

Reference: patent US20180064153A1, “Methods of Protecting Against Brain Injury” (priority 2016, published 2018)
